Here are results for eight compounds from patent US5476944A, “Derivatives of cyclic phenolic thioethers” (G. D. Searle & Co., priority 1994, dated 1995).

The target of data set [1] is T1, Sheep Seminal Vesicle Microsome Cyclooxygenase (Ovis aries, UniProt P05979).
T1 construct: Lyophilized ovine microsome (approximately 1 mg) suspended in 2.9 ml Tris-HCl buffer; from tissue; host or cells: sheep seminal vesicle microsomes, lyophilized
T1 sequence (P05979 25-600): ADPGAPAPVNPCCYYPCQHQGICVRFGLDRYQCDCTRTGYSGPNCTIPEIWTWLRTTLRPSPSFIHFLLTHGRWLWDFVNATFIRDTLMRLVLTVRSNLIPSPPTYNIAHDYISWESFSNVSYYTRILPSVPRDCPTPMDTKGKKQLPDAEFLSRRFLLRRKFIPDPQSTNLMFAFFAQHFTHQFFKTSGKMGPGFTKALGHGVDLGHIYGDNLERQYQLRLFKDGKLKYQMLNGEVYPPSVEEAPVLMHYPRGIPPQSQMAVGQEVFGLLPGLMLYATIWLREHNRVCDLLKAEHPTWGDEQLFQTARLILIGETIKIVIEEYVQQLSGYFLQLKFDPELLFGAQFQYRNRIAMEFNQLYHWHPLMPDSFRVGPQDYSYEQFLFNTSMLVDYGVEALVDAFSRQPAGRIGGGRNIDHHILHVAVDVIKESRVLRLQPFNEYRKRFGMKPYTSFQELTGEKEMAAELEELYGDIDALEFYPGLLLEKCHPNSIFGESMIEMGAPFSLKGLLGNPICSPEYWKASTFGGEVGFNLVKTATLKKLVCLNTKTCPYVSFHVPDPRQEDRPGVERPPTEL
Briefly: Inhibition of Sheep Seminal Vesicle Microsome Cyclooxygenase. In kind it is biochemical. The following applies: for IC50: sheep seminal vesicle microsomes. The procedure:
The compounds of the present invention evaluated with respect to cyclooxygenase inhibition according to the following assay procedure. Inhibition of Sheep Seminal Vesicle Microsome Cyclooxygenase: This assay was based on oxygen consumption during conversion of arachidonic acid to prostaglandin G2 catalyzed by cyclooxygenase BIOCHEM. 11:3276-3285 (1972), which is incorporated herein by reference. Lyophilized ovine microsome (approximately 1 mg) suspended in 2.9 ml Tris-HCl buffer, pH 8.2, containing 0.7 mM phenol were used as source of arachidonate cyclooxygenase. The inhibitor, 50 μl in DMSO, was added and the mixture was preincubated for 5 minutes at 37° C. Fifty μl of arachidonic acid (final concentration 50 μM) was added to start the reaction. The slopes of the initial rates of oxygen uptake, in the presence and absence of inhibitor, were compared to determine reaction inhibition. Percent inhibition was computed using the following formula: [formula]

A further data set relates to Rats. As to the kind of experiment: Chronic adjuvant-induced polyarthritis test. It counts as in vivo. The following applies: intragastric; for minimal effective dose: Rattus norvegicus, po, 456 h, 18 days, rats, read-out: Minimum dose to result in a statistically significant reduction [p < 0.05] in the paw volume/body weight ratio; for % Inhibition in the paw volume to body weight ratio: at minimum significant dose 25 mg/kg/day, day 19, rats. How it is done: Chronic adjuvant-induced polyarthritis test:
Rats [50-70 gm] were weighed, ear tagged and intradermally inoculated in the tail base with 2.0 mg of heat killed M. butyricum suspended in 0.05 ml of white paraffin oil [n=12-15 per group]. Compounds were intragastrically administered beginning on the day of inoculation and continued for 18 days. Each daily dose was split [dose volume=0.5 ml/100 gm] and given approximately 7 hours apart. Animals were weighed every 3 days, and the dose was adjusted accordingly. On day 19, animals were sacrificed by inhalation of CO2, weighed, and total hind paw volume was measured by the displacement of water with a plethysmometer (Ugo Basile, Varese, Italy). A group of age-matched naive rats were included. These rats, designated "normal," were not inoculated with adjuvant or gavaged with vehicle.
For individual experiments, the paw volume/body weight ratios for each dose were compared to the ratio for the vehicle treated control group by a two-tailed Dunnett's t-test (p ≤0.05). The Dunnett's test was preceded by a Bartlett's test of variance homogeneity across the dose groups. If the Bartlett's test was significant, an appropriate variance stabilizing transformation was applied to the data, and the Dunnett's test was performed on the transformed data.

The target in a further data set is T2, 5-lipoxygenase (Rattus norvegicus, UniProt P12527).
T2 construct: The 100,000×g supernatant fraction of Rat Basophilic Leukemia Cell Homogenate (RBL-1); endogenous in cells; host or cells: RBL-1 (rat basophilic leukemia) cells, 100,000xg supernatant of homogenate
T2 sequence (P12527 1-673): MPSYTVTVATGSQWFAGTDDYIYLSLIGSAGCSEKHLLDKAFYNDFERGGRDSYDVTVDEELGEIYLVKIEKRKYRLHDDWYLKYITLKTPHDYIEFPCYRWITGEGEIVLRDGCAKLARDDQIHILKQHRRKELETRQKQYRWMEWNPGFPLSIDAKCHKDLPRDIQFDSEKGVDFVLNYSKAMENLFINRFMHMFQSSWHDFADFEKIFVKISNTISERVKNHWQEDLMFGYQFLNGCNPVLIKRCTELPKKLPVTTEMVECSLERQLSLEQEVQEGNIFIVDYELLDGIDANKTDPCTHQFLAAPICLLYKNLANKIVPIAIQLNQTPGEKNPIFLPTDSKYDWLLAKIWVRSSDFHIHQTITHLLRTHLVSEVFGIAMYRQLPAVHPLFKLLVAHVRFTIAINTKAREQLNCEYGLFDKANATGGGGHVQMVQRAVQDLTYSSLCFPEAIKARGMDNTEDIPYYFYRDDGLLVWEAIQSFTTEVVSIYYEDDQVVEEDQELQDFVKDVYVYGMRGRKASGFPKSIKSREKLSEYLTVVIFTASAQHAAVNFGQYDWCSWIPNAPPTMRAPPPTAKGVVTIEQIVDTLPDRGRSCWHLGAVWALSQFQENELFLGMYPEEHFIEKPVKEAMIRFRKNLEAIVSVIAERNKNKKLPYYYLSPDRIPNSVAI
Briefly: Inhibition of 5-lipoxygenase, in vitro (5-HETE formation, RBL-1 homogenate supernatant). In kind it is biochemical. The procedure:
The compounds of the invention are evaluated with respect to 5-lipoxygenaseinhibition according to the following assay procedure.
Inhibition of 5-lipoxygenase, in vitro:
The 100,000×g supernatant fraction of Rat Basophilic Leukemia Cell Homogenate (RBL-1) serves as a 5-lipoxygenase enzyme source. The enzyme is incubated with [1-^4 C)-arachidonic acid and Ca++ in the presence and absence of test compound. The product of 5-lipoxygenase, 5-hydroxyeicosatetraenoic acid (5-HETE), is separated by thin-layer chromatography and measured by radioactivity. A compound inhibiting 5-HETE synthesis by 30% or more is considered active at that concentration.
For comparison the compound of Formula XX, a known 5-lipoxygenase inhibitor described in U.S. Pat. No. 4,755,524 was used: [drawing 29] (±)[2S*-[[3,5-bis(1,1-dimethylethyl)-4-hydroxyphenyl]thio]-1R*-methylpro poxy]acetic acid.

Data set [2] deals with Human neutrophil superoxide generation. Briefly: Human neutrophil superoxide generation, FMLP-induced. It counts as cell-based. The procedure: The compounds of the present invention are evaluated with respect to superoxide modulating activity according to the following assay procedure:
Human neutrophil superoxide generation:
Superoxide generation by formyl-methionyl-leucyl-phenylalanine (FMLP)-stimulated neutrophils was quantitated by the reduction of cytochrome C (Badwey, J. A., Curnutte, J. T. and Karnovsky, M. L., cis-Polyunsaturated fatty acids induce high levels of superoxide production by human neutrophils. J. BIOL. CHEM. 256: 12640-12643, 1981, which is incorporated herein by reference.) To 5 million neutrophils in 2.85 ml of Krebs-Ringer phosphate buffer, pH 7.2, 50 ul of inhibitor (in 10% DMSO/buffer), and 50 ul ferricytochrome C (5 mM, stock) were added and preincubated for 3 minutes at 37° C. Absorption measurements at 550 nm were recorded at start of preincubation. Fifty ul FMLP (6 uM, stock) was added to initiate reaction. A plateau was reached within 3 minutes and this reading minus the initial reading (before addition of FMLP) was used to calculate nanomoles of superoxide generated based on a molar extinction coefficient of 2.1×10^4 cm^-1 mole^-1.
Isolation of human neutrophils:
Human neutrophils were isolated from freshly drawn blood of healthy donors. […] The red cell lysing procedure was repeated, the cells suspended in appropriate buffer (depending on assay) and counted.

Another data set has as its system COX II enzyme. The following applies: metabolite of nabumetone; cited from earlier work.
The conditions of data set [3]: insertion of the thio group; cited from earlier work.
For data set [4] the following is noted: relative to histamine; cited from earlier work.
For data set [5] the following is noted: in vivo; cited from earlier work.

Like-named read-outs stand apart in the source and are kept apart here.

On to `CC(C)(C)c1cc(S[C@@H]2CCCC[C@H]2SCC(=O)O)cc(C(C)(C)C)c1` (relative stereo) [Example 5, trans-[[2-[[3,5-bis(1,1-dimethylethyl)phenyl]thio]cyclohexyl]thio]acetic acid], for which inhibition in data set [1] was half-maximal at 3.1 µM (IC50). Moreover, in the data set with Rats, the minimal effective dose was found to be 25 mg/kg/day and the “% Inhibition in the paw volume to body weight ratio” value is reported as 64.4%.

For `O=C(O)CS[C@@H]1CCCC[C@H]1Sc1ccccc1` (relative stereo) [Example 7, trans-[[2-(phenylthio)cyclohexyl]thio]acetic acid], the “cyclooxygenase inhibition (in words)” value in data set [1] is listed as “did not inhibit either 5-lipoxygenase or cyclooxygenase”. For the same compound, the “5-lipoxygenase inhibition (in words)” value at 5-lipoxygenase was “did not inhibit either 5-lipoxygenase or cyclooxygenase”. The “superoxide generation (in words)” value in data set [2] was “did inhibit superoxide generation”.

`CC(C)(C)c1cc(S[C@@H]2CCCC[C@H]2OCC(=O)O)cc(C(C)(C)C)c1` (relative stereo) [Example 17, trans-[[2-[[3,5-bis(1,1-dimethylethyl)phenyl]thio]cyclohexyl]oxy]acetic acid]: 3.8 µM corresponded to half-maximal inhibition in data set [1] (IC50). Moreover, in the data set with Rats, the minimal effective dose turned out to be 25 mg/kg/day and the “% Inhibition in the paw volume to body weight ratio” value turned out to be 50.8%.

As to `C[C@H](Sc1cc(C(C)(C)C)c(O)c(C(C)(C)C)c1)[C@@H](C)OCC(=O)O` (relative stereo) [Formula XX, (±)[2S*-[[3,5-bis(1,1-dimethylethyl)-4-hydroxyphenyl]thio]-1R*-methylpropoxy]acetic acid, reference compound], at 5-lipoxygenase, the “5-lipoxygenase inhibition (in words)” value was “inhibited both superoxide generation and 5-lipoxygenase”. In addition, in data set [2], the “superoxide generation (in words)” value is “inhibited both superoxide generation and 5-lipoxygenase”.

Regarding `COc1ccc2cc(CC(=O)O)ccc2c1` [6-methoxy-2-napthylacetic acid], the “selective inhibition of COX II (in words)” value in the data set on COX II enzyme is given as “selectively inhibit the COX II enzyme”.

For the compound `CC(C)(C)c1cc(SC2CCOC2=O)cc(C(C)(C)C)c1O` (stereo not shown) [Compound 3], in data set [3], the “anti-inflammatory activity (in words)” value is recorded as “loss of anti-inflammatory activity”.

Regarding `CCCCC/C=C\C\C=C/C=C/C=C/[C@@H](SC[C@H](NC(=O)CC[C@H](N)C(=O)O)C(=O)NCC(=O)O)[C@@H](O)CCCC(=O)O` [LTC4], the “potency versus histamine in causing long lasting bronchoconstricting effects” value in data set [4] is recorded as “at least 100 times”.

As to `CS(=O)(=O)Nc1ccc([N+](=O)[O-])cc1OC1CCCCC1` [N-(2-cyclohexyloxy-4-nitrophenyl)methanesulfonamide], in data set [5], the “anti-inflammatory activity (in words)” value is listed as “anti-inflammatory” and the “gastric side effects (in words)” value is “lacks gastric side effects”.
